Laboratory results as given in patent US12187699B2, “GSPT1 compounds and methods of use of the novel compounds” (BRISTOL-MYERS SQUIBB COMPANY, priority 2022, dated 2025).

biological target: T1, ePL-tagged GSPT1 (Homo sapiens, UniProt P15170+Q96SW2); experiment: GSPT1 DiscoverX Degradation Assay; format: cell-based; settings: DF15 multiple myeloma cells expressing ePL-tagged GSPT1; twenty hours; minimum of percent of control curve (Ataluren control Y constant=0, DMSO control = Y max)
T1 construct: expressed in transfected cells; host or cells: DF15 multiple myeloma cells
T1 sequence (P15170 whole entry): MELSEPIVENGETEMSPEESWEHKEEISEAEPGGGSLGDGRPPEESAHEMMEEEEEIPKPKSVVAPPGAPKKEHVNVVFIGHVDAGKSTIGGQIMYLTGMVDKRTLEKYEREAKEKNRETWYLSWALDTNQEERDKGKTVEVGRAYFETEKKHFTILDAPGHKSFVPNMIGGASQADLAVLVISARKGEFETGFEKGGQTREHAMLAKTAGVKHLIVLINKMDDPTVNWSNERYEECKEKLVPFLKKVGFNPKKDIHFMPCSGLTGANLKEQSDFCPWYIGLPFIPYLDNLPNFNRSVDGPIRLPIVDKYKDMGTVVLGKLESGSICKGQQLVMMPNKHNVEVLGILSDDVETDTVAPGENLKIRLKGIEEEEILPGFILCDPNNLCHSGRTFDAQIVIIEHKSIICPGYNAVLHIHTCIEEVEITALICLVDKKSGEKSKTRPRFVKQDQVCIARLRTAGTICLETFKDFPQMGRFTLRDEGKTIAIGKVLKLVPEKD
T1 sequence (Q96SW2 whole entry): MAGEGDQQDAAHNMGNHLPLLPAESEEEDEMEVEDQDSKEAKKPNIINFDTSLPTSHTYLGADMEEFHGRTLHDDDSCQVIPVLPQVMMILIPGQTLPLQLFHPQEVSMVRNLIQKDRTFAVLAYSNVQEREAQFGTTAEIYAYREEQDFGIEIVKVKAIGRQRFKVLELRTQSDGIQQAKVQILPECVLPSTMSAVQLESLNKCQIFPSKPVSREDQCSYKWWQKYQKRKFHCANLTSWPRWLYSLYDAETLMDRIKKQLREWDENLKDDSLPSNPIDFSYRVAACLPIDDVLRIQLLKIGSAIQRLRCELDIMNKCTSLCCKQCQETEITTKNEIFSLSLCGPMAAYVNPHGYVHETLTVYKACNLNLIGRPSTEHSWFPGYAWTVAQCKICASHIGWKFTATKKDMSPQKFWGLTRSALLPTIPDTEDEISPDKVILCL
T1 sequence (Q16531 whole entry partner): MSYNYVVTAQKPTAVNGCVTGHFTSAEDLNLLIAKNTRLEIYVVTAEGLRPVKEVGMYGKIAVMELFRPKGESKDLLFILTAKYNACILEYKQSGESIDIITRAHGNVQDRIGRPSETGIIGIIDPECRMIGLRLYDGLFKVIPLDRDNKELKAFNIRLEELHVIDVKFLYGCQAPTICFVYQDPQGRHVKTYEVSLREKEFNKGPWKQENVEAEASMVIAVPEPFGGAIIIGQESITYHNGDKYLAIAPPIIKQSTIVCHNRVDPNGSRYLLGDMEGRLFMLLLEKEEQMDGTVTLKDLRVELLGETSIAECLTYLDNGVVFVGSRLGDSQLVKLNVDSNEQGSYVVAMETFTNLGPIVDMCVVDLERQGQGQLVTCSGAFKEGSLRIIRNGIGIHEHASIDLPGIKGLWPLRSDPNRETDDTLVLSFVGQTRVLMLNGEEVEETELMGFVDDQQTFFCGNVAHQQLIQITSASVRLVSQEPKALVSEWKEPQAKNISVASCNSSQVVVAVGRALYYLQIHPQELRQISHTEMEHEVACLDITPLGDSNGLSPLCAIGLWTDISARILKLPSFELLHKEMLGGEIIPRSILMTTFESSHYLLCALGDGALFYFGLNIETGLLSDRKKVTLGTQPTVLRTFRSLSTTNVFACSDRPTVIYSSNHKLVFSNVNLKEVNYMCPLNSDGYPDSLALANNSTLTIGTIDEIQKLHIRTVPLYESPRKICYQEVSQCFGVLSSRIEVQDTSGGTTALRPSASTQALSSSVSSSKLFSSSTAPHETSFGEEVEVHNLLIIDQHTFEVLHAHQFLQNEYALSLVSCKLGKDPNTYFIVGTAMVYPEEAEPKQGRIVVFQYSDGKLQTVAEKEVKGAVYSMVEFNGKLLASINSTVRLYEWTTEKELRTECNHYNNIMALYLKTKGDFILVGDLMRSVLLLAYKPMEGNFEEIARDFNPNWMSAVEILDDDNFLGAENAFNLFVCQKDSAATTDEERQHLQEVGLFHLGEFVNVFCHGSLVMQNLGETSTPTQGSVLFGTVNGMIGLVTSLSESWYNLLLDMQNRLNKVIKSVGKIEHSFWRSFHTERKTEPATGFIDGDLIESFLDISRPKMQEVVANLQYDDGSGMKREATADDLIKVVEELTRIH
Description: GSPT1 DiscoverX Degradation Assay.
Compounds were dispensed by an acoustic dispenser (ATS Acoustic Transfer System from EDC Biosystems) into a 384-well in a 10 pt dose response curve using 3 fold dilutions starting at 10 uM and going down to 0.0005 uM in DMSO. A DMSO control is added to the assay. […] Assay plates were incubated at 37° C. with 5% CO2 for twenty hours. After incubation, 25 μl of the InCELL Hunter™ Detection Reagent Working Solution (DiscoverX, cat #96-0002, Fremont, CA) was added to each well and incubated at room temperature for 30 minutes protected from light. After 30 minutes, luminescence was read on a PHERAstar luminometer (Cary, NC).
The minimum Y is reference to the Y constant. In the GSPT1 degradation assay, we use Ataluren® (luciferase inhibitor) as the control with a Y constant=0. The maximum limit is the Y max DMSO control. All percent of control GSPT1 degradation curves were processed and evaluated using Activity Base (IDBS).

Structure (SMILES)	GSPT1 Degradation Ymin
Nc1ccccc1COc1ccc(NC(=O)NCc2ccc3c(c2)CN(C2CCC(=O)NC2=O)C3=O)cc1 (stereo not drawn) [Example 28, 1-(4-((2-aminobenzyl)oxy)phenyl)-3-((2-(2,6-dioxopiperidin-3-yl)-1-oxoisoindolin-5-yl)methyl)urea]	10.20
CCCc1cc(CN)ccc1COc1ccc(NC(=O)NCc2ccc3c(c2)CN(C2CCC(=O)NC2=O)C3=O)cc1 (stereo not drawn) [Example 22, 1-(4-{[4-(aminomethyl)-2-n-propylphenyl]methoxy}phenyl)-3-{[2-(2,6-dioxopiperidin-3-yl)-1-oxo-2,3-dihydro-1H-isoindol-5-yl]methyl}urea]	9.46
NCc1ccc(COc2ccc(NC(=O)NCc3ccc4c(c3)CN(C3CCC(=O)NC3=O)C4=O)cc2)c(Cl)c1 (stereo not drawn) [Example 25, 1-(4-{[4-(aminomethyl)-2-chlorophenyl]methoxy}phenyl)-3-{[2-(2,6-dioxopiperidin-3-yl)-1-oxo-2,3-dihydro-1H-isoindol-5-yl]methyl}urea]	5.50
O=C1CCC(N2Cc3cc(CNC(=O)Nc4ccc(OCc5ccccc5O)cc4)ccc3C2=O)C(=O)N1 (stereo not drawn) [Example 10, 1-((2-(2,6-dioxopiperidin-3-yl)-1-oxoisoindolin-5-yl)methyl)-3-(4-((2-hydroxybenzyl)oxy)phenyl)urea]	4.00
NCc1cnc(COc2ccc(NC(=O)NCc3ccc4c(c3)CN(C3CCC(=O)NC3=O)C4=O)cc2)nc1 (stereo not drawn) [Example 15, 1-(4-{[5-(aminomethyl)pyrimidin-2-yl]methoxy}phenyl)-3-{[2-(2,6-dioxopiperidin-3-yl)-1-oxo-2,3-dihydro-1H-isoindol-5-yl]methyl}urea]	3.10
NCc1ccc(COc2ccc(NC(=O)NCc3ccc4c(c3)CN(C3CCC(=O)NC3=O)C4=O)cc2)c(C2CC2)c1 (stereo not drawn) [Example 27, 1-(4-{[4-(aminomethyl)-2-cyclopropylphenyl]methoxy}phenyl)-3-{[2-(2,6-dioxopiperidin-3-yl)-1-oxo-2,3-dihydro-1H-isoindol-5-yl]methyl}urea]	6.15
NCc1ccc(COc2ccc(NC(=O)NCc3ccc4c(c3)CN(C3CCC(=O)NC3=O)C4=O)cc2Cl)cc1 (stereo not drawn) [Example 29, 1-(4-((4-(aminomethyl)benzyl)oxy)-3-chlorophenyl)-3-((2-(2,6-dioxopiperidin-3-yl)-1-oxoisoindolin-5-yl)methyl)urea]	16.88
NCc1ccc(COc2ccc(NC(=O)NCc3ccc4c(c3)CN(C3CCC(=O)NC3=O)C4=O)cc2)cc1 (stereo not drawn) [Example 2, 1-[4-[[4-(aminomethyl)phenyl]methoxy]phenyl]-3-[[2-(2,6-dioxo-3-piperidyl)-1-oxo-isoindolin-5-yl]methyl]urea]	4.34
CCc1cc(CN)ccc1COc1ccc(NC(=O)NCc2ccc3c(c2)CN(C2CCC(=O)NC2=O)C3=O)cc1 (stereo not drawn) [Example 21, 1-(4-{[4-(aminomethyl)-2-ethylphenyl]methoxy}phenyl)-3-{[2-(2,6-dioxopiperidin-3-yl)-1-oxo-2,3-dihydro-1H-isoindol-5-yl]methyl}urea]	10.44
NCc1ccc(COc2ccc(NC(=O)NCc3ccc4c(c3)CN(C3CCC(=O)NC3=O)C4=O)cc2)cn1 (stereo not drawn) [Example 14, 1-(4-{[6-(aminomethyl)pyridin-3-yl]methoxy}phenyl)-3-{[2-(2,6-dioxopiperidin-3-yl)-1-oxo-2,3-dihydro-1H-isoindol-5-yl]methyl}urea]	5.83
NCc1ccccc1COc1ccc(NC(=O)NCc2ccc3c(c2)CN(C2CCC(=O)NC2=O)C3=O)cc1 (stereo not drawn) [Example 3, 1-(4-((2-(aminomethyl)benzyl)oxy)phenyl)-3-((2-(2,6-dioxopiperidin-3-yl)-1-oxoisoindolin-5-yl)methyl)urea]	7.30
Nc1cccc(COc2ccc(NC(=O)NCc3ccc4c(c3)CN(C3CCC(=O)NC3=O)C4=O)cc2)c1 (stereo not drawn) [Example 5, 1-(4-((3-aminobenzyl)oxy)phenyl)-3-((2-(2,6-dioxopiperidin-3-yl)-1-oxoisoindolin-5-yl)methyl)urea]	3.00
NCc1ccc(CO[C@H]2CC[C@H](NC(=O)NCc3ccc4c(c3)CN(C3CCC(=O)NC3=O)C4=O)CC2)cc1 (stereo partly drawn) [Example 35, 3-{[2-(2,6-dioxopiperidin-3-yl)-1-oxo-2,3-dihydro-1H-isoindol-5-yl]methyl}-1-[(1r,4r)-4-{[4-(aminomethyl)phenyl]methoxy}cyclohexyl]urea]	17.59
O=C1CCC(N2Cc3cc(CNC(=O)Nc4ccc(OCc5ccccc5)cc4)ccc3C2=O)C(=O)N1 (stereo not drawn) [Example 6, 1-[4-(benzyloxy)phenyl]-3-{[2-(2,6-dioxopiperidin-3-yl)-1-oxo-2,3-dihydro-1H-isoindol-5-yl]methyl}urea]	3.00
NCc1ccc(COc2ccc(NC(=O)NCc3ccc4c(c3)CN(C3CCC(=O)NC3=O)C4=O)cc2)c(F)c1 (stereo not drawn) [Example 11, 1-(4-{[4-(aminomethyl)-2-fluorophenyl]methoxy}phenyl)-3-{[2-(2,6-dioxopiperidin-3-yl)-1-oxo-2,3-dihydro-1H-isoindol-5-yl]methyl}urea]	6.71
CC(C)Oc1cc(CN)ccc1COc1ccc(NC(=O)NCc2ccc3c(c2)CN(C2CCC(=O)NC2=O)C3=O)cc1 (stereo not drawn) [Example 24, 1-(4-{[4-(aminomethyl)-2-(propan-2-yloxy)phenyl]methoxy}phenyl)-3-{[2-(2,6-dioxopiperidin-3-yl)-1-oxo-2,3-dihydro-1H-isoindol-5-yl]methyl}urea]	10.04
NC[C@H]1CC[C@H](COc2ccc(NC(=O)NCc3ccc4c(c3)CN(C3CCC(=O)NC3=O)C4=O)cc2)CC1 (stereo partly drawn) [Example 34, 3-{[2-(2,6-dioxopiperidin-3-yl)-1-oxo-2,3-dihydro-1H-isoindol-5-yl]methyl}-1-(4-{[(1r,4r)-4-(aminomethyl)cyclohexyl]methoxy}phenyl)urea]	7.47
O=C1CCC(N2Cc3cc(CNC(=O)Nc4ccc(OCc5cccc(CO)c5)cc4)ccc3C2=O)C(=O)N1 (stereo not drawn) [Example 7, 1-((2-(2,6-dioxopiperidin-3-yl)-1-oxoisoindolin-5-yl)methyl)-3-(4-((3-(hydroxymethyl)benzyl)oxy)phenyl)urea]	4.00
NCc1ccc(COc2ccc(NC(=O)NCc3ccc4c(c3)CN(C3CCC(=O)NC3=O)C4=O)nn2)cc1 (stereo not drawn) [Example 19, 1-(6-{[4-(aminomethyl)phenyl]methoxy}pyridazin-3-yl)-3-{[2-(2,6-dioxopiperidin-3-yl)-1-oxo-2,3-dihydro-1H-isoindol-5-yl]methyl}urea]	6.55
Cc1cc(NC(=O)NCc2ccc3c(c2)CN(C2CCC(=O)NC2=O)C3=O)ccc1OCc1ccc(CN)cc1 (stereo not drawn) [Example 17, 1-(4-{[4-(aminomethyl)phenyl]methoxy}-3-methylphenyl)-3-{[2-(2,6-dioxopiperidin-3-yl)-1-oxo-2,3-dihydro-1H-isoindol-5-yl]methyl}urea]	15.91
NCc1cccc(COc2ccc(NC(=O)NCc3ccc4c(c3)CN(C3CCC(=O)NC3=O)C4=O)cc2)c1 (stereo not drawn) [Example 4, 1-(4-((3-(aminomethyl)benzyl)oxy)phenyl)-3-((2-(2,6-dioxopiperidin-3-yl)-1-oxoisoindolin-5-yl)methyl)urea]	6.80
O=C1CCC(N2Cc3cc(CNC(=O)Nc4ccc(OCc5ccccc5CO)cc4)ccc3C2=O)C(=O)N1 (stereo not drawn) [Example 8, 1-((2-(2,6-dioxopiperidin-3-yl)-1-oxoisoindolin-5-yl)methyl)-3-(4-((2-(hydroxymethyl)benzyl)oxy)phenyl)urea]	4.00
C[C@@]1(N2Cc3cc(CNC(=O)Nc4ccc(OCc5ccc(CN)cc5)cc4)ccc3C2=O)CCC(=O)NC1=O [Example 33, 1-(4-{[4-(aminomethyl)phenyl]methoxy}phenyl)-3-({2-[(3R)-3-methyl-2,6-dioxopiperidin-3-yl]-1-oxo-2,3-dihydro-1H-isoindol-5-yl}methyl)urea]	60.95
NCc1ccc(COc2ccc(NC(=O)NCc3ccc4c(c3)CN(C3CCC(=O)NC3=O)C4=O)cc2)c(OC2COC2)c1 (stereo not drawn) [Example 26, 1-(4-{[4-(aminomethyl)-2-(oxetan-3-yloxy)phenyl]methoxy}phenyl)-3-{[2-(2,6-dioxopiperidin-3-yl)-1-oxo-2,3-dihydro-1H-isoindol-5-yl]methyl}urea]	6.92
NCc1ccc(COc2ccc(NC(=O)NCc3ccc4c(c3)CN(C3CCC(=O)NC3=O)C4=O)cc2)nc1 (stereo not drawn) [Example 13, 1-(4-{[5-(aminomethyl)pyridin-2-yl]methoxy}phenyl)-3-{[2-(2,6-dioxopiperidin-3-yl)-1-oxo-2,3-dihydro-1H-isoindol-5-yl]methyl}urea]	6.75
NCc1ccc(COc2ccc(NC(=O)NCc3ccc4c(c3)CN(C3CCC(=O)NC3=O)C4=O)cc2)c(OC(F)F)c1 (stereo not drawn) [Example 31, 1-(4-{[4-(aminomethyl)-2-diflouromethoxyphenyl]methoxy}phenyl)-3-{[2-(2,6-dioxopiperidin-3-yl)-1-oxo-2,3-dihydro-1H-isoindol-5-yl]methyl}urea]	7.07
O=C1CCC(N2Cc3cc(CNC(=O)Nc4ccc(OCc5ccc(CO)cc5)cc4)ccc3C2=O)C(=O)N1 (stereo not drawn) [Example 1, 1-((2-(2,6-dioxopiperidin-3-yl)-1-oxoisoindolin-5-yl)methyl)-3-(4-((4-(hydroxymethyl)benzyl)oxy)phenyl)urea]	3.00
